In patent US8063225B2, “Tricyclic compound derivatives useful in the treatment of neoplastic diseases, inflammatory disorders and immunomodulatory disorders” (Chembridge Corporation, priority 2006, dated 2011):

Legend:
IGF1R tyrosine kinase = target: T1, IGF1R tyrosine kinase (Homo sapiens, UniProt P08069); experiment: IGF1R tyrosine kinase assay (Kinase-Glo ATP depletion or PT66/PT100 AlphaScreen); settings: biochemical tyrosine kinase assay
T1 construct: 6×His- or GST-tagged kinase domain fragments of the corresponding RTKs expressed in baculovirus system; host or cells: baculovirus system
T1 sequence (P08069 999-1274 limits assumed): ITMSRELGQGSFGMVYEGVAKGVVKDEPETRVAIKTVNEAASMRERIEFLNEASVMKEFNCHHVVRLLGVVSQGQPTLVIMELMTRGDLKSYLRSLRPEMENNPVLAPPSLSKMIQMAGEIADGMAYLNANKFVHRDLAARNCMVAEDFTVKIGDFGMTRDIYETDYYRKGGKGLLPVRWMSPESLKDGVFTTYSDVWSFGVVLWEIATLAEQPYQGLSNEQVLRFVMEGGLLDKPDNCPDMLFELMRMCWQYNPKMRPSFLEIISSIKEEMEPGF
How it was run: (§1)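 Luminescence of remaining ATP (Kinase-Glo) or anti-phosphotyrosine AlphaScreen proximity signal served as read-out. Reactions held purified tagged kinase domain, poly(Glu-Tyr) substrate and 10 μM ATP at pH 7.5. IC50 values came from non-linear regression fits.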

InsR = target: T2, InsR (Homo sapiens, UniProt P06213); experiment: Tyrosine kinase assay (Kinase-Glo or AlphaScreen), InsR; settings: biochemical tyrosine kinase assay
T2 construct: 6×His- or GST-tagged kinase domain fragments of the corresponding RTKs expressed in baculovirus system; host or cells: baculovirus system
T2 sequence (P06213 1023-1298 limits assumed, species assumed): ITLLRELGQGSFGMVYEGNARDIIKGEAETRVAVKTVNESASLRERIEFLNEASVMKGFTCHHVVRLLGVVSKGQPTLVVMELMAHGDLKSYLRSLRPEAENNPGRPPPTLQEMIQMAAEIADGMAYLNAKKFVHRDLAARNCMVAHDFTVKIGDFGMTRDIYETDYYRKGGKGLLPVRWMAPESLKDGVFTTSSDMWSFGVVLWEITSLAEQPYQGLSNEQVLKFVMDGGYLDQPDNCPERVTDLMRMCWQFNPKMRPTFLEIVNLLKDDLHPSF
How it was run: as §1

Jak2 = target: T3, Jak2 (Homo sapiens, UniProt O60674); experiment: Tyrosine kinase assay (Kinase-Glo or AlphaScreen), Jak2; settings: biochemical tyrosine kinase assay
T3 construct: 6×His- or GST-tagged kinase domain fragments of the corresponding RTKs expressed in baculovirus system; host or cells: baculovirus system
T3 sequence (O60674 849-1124 limits assumed, species assumed): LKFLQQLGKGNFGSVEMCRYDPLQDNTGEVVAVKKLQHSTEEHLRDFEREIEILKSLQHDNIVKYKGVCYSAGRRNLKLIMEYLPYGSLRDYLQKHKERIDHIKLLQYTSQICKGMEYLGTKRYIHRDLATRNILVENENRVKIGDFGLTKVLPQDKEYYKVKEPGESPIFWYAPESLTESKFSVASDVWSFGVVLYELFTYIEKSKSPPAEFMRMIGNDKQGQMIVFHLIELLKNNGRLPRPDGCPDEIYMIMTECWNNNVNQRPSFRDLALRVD
How it was run: as §1

[1] = tested on: CHO (chinese hamster ovary); experiment: Cell proliferation inhibition, Cell Titer-Glo, CHO; format: cell-based; settings: Cricetulus griseus; cell proliferation assay, CHO cells
Protocol: (§2) IGF1R and other tyrosine kinase inhibitors can inhibit the proliferation of certain cancer cell lines indicating their possible therapeutic utility for treating the corresponding cancer types. Cancer cell lines of interest and control normal lines, including CHO, HEK293, BA/F3, MM1, H929, COLO205, PC3, DU145, MCF7, Panc1, ACHN, Hep G2, H460, K562, TT, U87-G, CAOV-3, SK-MEL5, Karpas 299, are plated in white, clear-bottomed 384-well cell culture plates at 2500-5000 cells per well and supplied with dilutions of tested compounds After a desired period of time (typically 3 days), the number of viable cells is quantitated by using Cell Titer-Glo Luminescent Cell Viability Assay (Promega), a cell proliferation assay system based on detection of total amount of ATP present as a measure of cell metabolic activity. The plated cells are mixed with the Cell Titer-Glo developing reagent and counted in a luminescence multiwell plate reader according to the standard manufacturer's protocol to generate IC50 curves for cell proliferation inhibition.
(§3) IGF1R and other tyrosine kinase inhibitors can inhibit the proliferation of certain cancer cell lines indicating their possible therapeutic utility for treating the corresponding cancer types. Cancer cell lines of interest and control normal lines, including CHO, HEK293, BA/F3, COLO205, PC3, DU145, MCF7, Panc1, ACHN, Hep G2, H460, K562, TT, U87-MG, CAOV-3, SK-MEL5, Karpas 299 and human multiple myeloma cell lines H929, MM1s, MM1r, UTMC2, CPM2, KMS11, My5, KMS12PE, My7, JJN3, KMS18, U266, SKMM2, RPMI-8226 are plated in white, clear-bottomed 384-well cell culture plates at 2500-5000 cells per well and supplied with dilutions of tested compounds After a desired period of time (typically 3 days), the number of viable cells is quantitated by using Cell Titer-Glo Luminescent Cell Viability Assay (Promega), a cell proliferation assay system based on detection of total amount of ATP present as a measure of cell metabolic activity. The plated cells are mixed with the Cell Titer-Glo developing reagent and counted in a luminescence multiwell plate reader according to the standard manufacturer's protocol to generate IC50 curves for cell proliferation inhibition. Results are typically reported as percent of growth (% viability =(OD72h(compound)−ODday0))/(OD72h(no compound)−ODday0). Alternatively, viable cells are quantitated by using the conventional colorimetric MTT assay. The MTT assay is based on the cleavage of the yellow tetrazolium salt MTT to purple formazan crystal by metabolic active cells. The formazan is then solubilized, and the concentration determined by optical density at 570 nm. The cells plated and incubated with a compound as described above are supplemented with the solution of MTT and incubated for 2-3 hours. The growth medium is removed and dimethyl sulfoxide is added into each well to dissolve the formazan. The absorbance is measured on an ELISA plate reader with a test wavelength of 570 nm and a background subtraction wavelength of 630 nm to obtain sample signal (OD570-OD630). […] The results are reported in terms of IC50 value for a particular compound and a cell line in the standard 3-day proliferation assay using Cell Titer-Glo. […] The results are reported in terms of IC50 value for a particular compound and a cell line in the standard 3-day proliferation assay using MTT assay.

H929 (multiple myeloma) = experiment: Cell proliferation inhibition, Cell Titer-Glo, H929; format: cell-based; settings: Homo sapiens, NCI-H929; cell proliferation assay, H929 cells
Protocol: as §2, §3

Alk = target: T4, Alk (Homo sapiens, UniProt Q9UM73); experiment: Tyrosine kinase assay (Kinase-Glo or AlphaScreen), Alk; settings: biochemical tyrosine kinase assay
T4 construct: 6×His- or GST-tagged kinase domain fragments of the corresponding RTKs expressed in baculovirus system; host or cells: baculovirus system
T4 sequence (Q9UM73 1116-1392 limits assumed, species assumed): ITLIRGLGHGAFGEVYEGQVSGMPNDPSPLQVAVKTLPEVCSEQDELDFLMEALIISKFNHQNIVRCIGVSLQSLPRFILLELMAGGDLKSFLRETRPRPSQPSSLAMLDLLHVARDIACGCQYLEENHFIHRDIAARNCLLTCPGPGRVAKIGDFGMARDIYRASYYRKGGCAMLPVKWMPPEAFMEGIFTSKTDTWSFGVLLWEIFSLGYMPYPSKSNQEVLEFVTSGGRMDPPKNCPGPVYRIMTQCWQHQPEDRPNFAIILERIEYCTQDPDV
How it was run: as §1

IGF1 receptor = target: T5, IGF1 receptor (Homo sapiens, UniProt P08069); experiment: ELISA-based assay of IGF1 receptor autophosphorylation inhibition in cells; format: cell-based; settings: IGF1R phosphorylation inhibition in MCF7 cells
T5 construct: MCF7 human breast cancer cells expressing IGF1 receptor; endogenous in cells; host or cells: MCF7 human breast cancer cells
T5 sequence (P08069 741-1367 limits assumed): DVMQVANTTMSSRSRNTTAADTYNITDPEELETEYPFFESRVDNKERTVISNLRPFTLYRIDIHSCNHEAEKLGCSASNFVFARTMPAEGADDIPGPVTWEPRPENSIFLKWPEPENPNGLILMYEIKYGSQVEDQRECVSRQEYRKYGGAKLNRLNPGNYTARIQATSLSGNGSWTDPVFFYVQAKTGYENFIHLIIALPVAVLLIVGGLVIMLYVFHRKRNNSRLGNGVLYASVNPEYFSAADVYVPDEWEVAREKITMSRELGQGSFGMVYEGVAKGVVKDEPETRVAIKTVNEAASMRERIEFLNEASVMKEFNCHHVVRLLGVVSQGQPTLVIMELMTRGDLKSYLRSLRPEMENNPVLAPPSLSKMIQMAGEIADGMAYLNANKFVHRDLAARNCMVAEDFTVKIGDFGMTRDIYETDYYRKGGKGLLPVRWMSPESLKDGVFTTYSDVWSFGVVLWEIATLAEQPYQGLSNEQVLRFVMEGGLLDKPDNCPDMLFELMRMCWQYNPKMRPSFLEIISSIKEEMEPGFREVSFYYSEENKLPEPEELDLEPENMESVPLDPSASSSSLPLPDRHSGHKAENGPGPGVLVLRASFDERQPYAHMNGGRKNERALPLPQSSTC
T5 sequence (P08069 31-736 partner limits assumed): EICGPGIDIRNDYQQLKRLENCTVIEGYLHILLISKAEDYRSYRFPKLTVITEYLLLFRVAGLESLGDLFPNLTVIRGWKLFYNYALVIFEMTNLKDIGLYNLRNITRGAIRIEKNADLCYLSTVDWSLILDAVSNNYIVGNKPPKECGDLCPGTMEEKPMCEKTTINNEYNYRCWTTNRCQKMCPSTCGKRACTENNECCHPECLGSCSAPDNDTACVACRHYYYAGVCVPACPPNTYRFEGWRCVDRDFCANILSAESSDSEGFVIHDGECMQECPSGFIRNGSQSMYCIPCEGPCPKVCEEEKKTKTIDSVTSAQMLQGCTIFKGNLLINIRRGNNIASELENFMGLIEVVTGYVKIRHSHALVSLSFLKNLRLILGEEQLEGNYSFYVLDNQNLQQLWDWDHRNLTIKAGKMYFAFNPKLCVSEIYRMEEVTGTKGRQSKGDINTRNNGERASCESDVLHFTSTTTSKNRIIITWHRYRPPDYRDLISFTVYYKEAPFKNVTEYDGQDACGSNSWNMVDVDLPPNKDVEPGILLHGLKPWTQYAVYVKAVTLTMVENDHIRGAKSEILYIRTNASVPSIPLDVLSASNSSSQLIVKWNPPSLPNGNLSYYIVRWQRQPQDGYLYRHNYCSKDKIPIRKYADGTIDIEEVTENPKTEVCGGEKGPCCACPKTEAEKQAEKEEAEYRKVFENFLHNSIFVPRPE
Protocol: In another embodiment, compounds that interact with the IGF1R kinase domain are tested in a cell-based assay system. In accordance with this embodiment, cells expressing a full-length IGF1 receptor or a fragment thereof containing the IGF1R kinase domain, are contacted with a candidate or a control compound and the ability of the compound to block tyrosine kinase activity of IGF1R within a cell is determined. This assay may be used to screen a single compound or a large library of candidate compounds. Typically, the cells or cell lines are of mammalian origin and they can express the IGF1 receptor, or functional IGF1R kinase domain fragment, endogenously or be genetically engineered to express the IGF1R, or functional fragment thereof. The ability of the candidate compound to inhibit IGF1R kinase activity can be determined by methods known to those skilled in the art. For example, the inhibition can be determined by ELISA-type assay or Western blot analysis with cell lysates or immunoprecipitated IGF1R receptor using various anti-IGF1R and anti-phosphotyrosine antibodies.
In general, cells expressing IGF1R are treated with modulators (i.e., inhibitors or activators) of IGF1R kinase activity and cell lysates are produced from these treated cells. IGF1Rs are isolated from the lysate by immunoprecipitation and analyzed for phosphotyrosine content. Alternatively, or in addition, cellular protein substrates phosphorylated by IGFR may be immunoprecipitated from the lysates and their degree of tyrosine phosphorylation determined.
MCF7 human breast cancer cells expressing IGF1 receptor or an engineered […] fibroblast cell line NIH 3T3 overexpressing full-length IGF1R are an exemplary cellular models in which to perform such assays. Such cells may be maintained in DMEM medium supplemented with 10% fetal bovine serum (FBS), 4% L-glutamine, 1% antibiotic solution (penicillin-Streptomycin) in a humidified atmosphere of 95% air and 5% CO2 at 37° C. Confluent cells in T175 cell culture flasks are incubated overnight with serum-free DMEM medium. After the serum starvation step, the cells are detached and split into a standard 96-well cell culture plate (one T175 flask per plate, 30 μl of cell suspension per plate well). Tested inhibitors from their 10 mM stock solutions in DMSO are subsequently added at various concentrations in serum-free DMEM medium for 1 hour incubation at 37° C. in CO2-incubator; total DMSO concentration in both treated and control wells is adjusted to 1%. Cells are then stimulated for 10 minutes with 100 nM IGF-1 added in 30 μl DMEM. After treatment, cells are lysed by addition of 30 μl of 4× lysis buffer (phosphate-buffered saline (PBS), 2% Triton-X100, 1 mM phenylmethylsulphonyl fluoride (PMSF) and 8 mM activated orthovanadate), mixing and incubation for 15 minute at room temperature. To prepare assay plates, 96-well ELISA Plates (Pierce Chemical, Reacti-bind plates) were coated by goat-anti-rabbit Fc antiserum by adding 0.25 μg antiserum per well in 0.2M sodium bicarbonate buffer per well and incubating overnight at 4° C. After incubation, the plate is washed three times by PBS with 0.02% Tween-20, supplied with 25 ng/50 μl per well of anti-IGF1R antibody (C-20, Santa Cruz Biotechnology) and incubated for several hours to overnight. Prior to the addition of the prepared cellular lysates, the antibody solution is aspirated, wells washed with PBS and supplied with 25 μl per well of Starting Block buffer (Pierce Chemical).
To measure tyrosine phosphorylation of the beta-subunits of the IGF1R, 25-50 μl of the lysates are transferred from the stimulation plate to the wells of the prepared assay plate and incubated overnight at 4° C. The wells are washed with PBS with 0.02% Tween-20, incubated with 50 μl of 1:3000 dilution of anti-phosphotyrosine 4G10-HRP antibody conjugate (Upstate Biotechnology) for 2 hours at room temperature and washed again. […]

| IC50 (IGF1R tyrosine kinase) | IC50 (InsR) | IC50 (Jak2) | IC50 (H929 (multiple myeloma)) | IC50 (Alk) | IC50 (IGF1 receptor) | SMILES | IC50 [1] |
| --- | --- | --- | --- | --- | --- | --- | --- |
| > 15 µM | 5 to 15 µM | 5 to 15 µM |  | 5 to 15 µM | 0.5 to 5 µM | O=C1NC(=O)c2cc3[nH]c(-c4c(NC[C@@H](O)c5cccc(Cl)c5)cc[nH]c4=O)nc3cc21 [compound 11] |  |
| > 15 µM | > 15 µM | > 15 µM |  | > 15 µM | 0.5 to 5 µM | O=C1c2cc3nc(-c4c(NC[C@@H](O)c5cccc(Cl)c5)cc[nH]c4=O)[nH]c3cc2C(=O)N1CCCN1CCOCC1 [compound 12] |  |
| < 0.5 µM | 0.5 to 5 µM | 0.5 to 5 µM |  | 0.5 to 5 µM | > 15 µM | CN1CCCC1CCN1C(=O)c2cc3nc(-c4c(NC[C@@H](O)c5cccc(Cl)c5)cc[nH]c4=O)[nH]c3cc2C1=O (stereo partly shown) [compound 18] |  |
| 0.5 to 5 µM | 0.5 to 5 µM | 0.5 to 5 µM |  | 5 to 15 µM | 5 to 15 µM | CN1CCC(N2C(=O)c3cc4nc(-c5c(NCC(O)COc6ccccc6)cc[nH]c5=O)[nH]c4cc3C2=O)CC1 (stereo not shown) [compound 23] |  |
| < 0.5 µM | < 0.5 µM | 0.5 to 5 µM |  | 0.5 to 5 µM | 0.5 to 5 µM | O=C1c2cc3nc(-c4c(NC[C@@H](O)c5cccc(Cl)c5)cc[nH]c4=O)[nH]c3cc2C(=O)N1CC1CCN(CCO)CC1 [compound 13] |  |
| 5 to 15 µM | 0.5 to 5 µM | 5 to 15 µM |  | > 15 µM | > 15 µM | Cc1cc(OCC(O)CNc2cc[nH]c(=O)c2-c2nc3cc4c(cc3[nH]2)C(=O)N(C2CCN(C)CC2)C4=O)ccc1Cl (stereo not shown) [compound 10] |  |
| 0.5 to 5 µM | 0.5 to 5 µM | 0.5 to 5 µM |  | 0.5 to 5 µM | > 15 µM | CN1CCN(CCN2C(=O)c3cc4nc(-c5c(NC[C@@H](O)c6cccc(Cl)c6)cc[nH]c5=O)[nH]c4cc3C2=O)CC1 [compound 20] |  |
| < 0.5 µM | 0.5 to 5 µM | 0.5 to 5 µM |  | 0.5 to 5 µM | > 15 µM | CN1CCN(CCCN2C(=O)c3cc4nc(-c5c(NC[C@@H](O)c6cccc(Cl)c6)cc[nH]c5=O)[nH]c4cc3C2=O)CC1 [compound 19] |  |

Further lines, the compound ahead of its results:

| SMILES | IC50 (IGF1R tyrosine kinase) | IC50 (InsR) | IC50 (Jak2) | IC50 (H929 (multiple myeloma)) | IC50 (Alk) | IC50 (IGF1 receptor) | IC50 [1] |
| --- | --- | --- | --- | --- | --- | --- | --- |
| Cc1ccc(Cl)c(OC[C@H](O)CNc2cc[nH]c(=O)c2-c2nc3cc4c(cc3[nH]2)C(=O)N(C2CCN(C)CC2)C4)c1F [compound 158] | < 0.5 µM | < 0.5 µM | < 0.5 µM | 5 to 15 µM | 5 to 15 µM |  | > 15 µM |
| COc1cccc(OC[C@H](O)CNc2cc[nH]c(=O)c2-c2nc3cc4c(cc3[nH]2)C(=O)N(C2CCN(C)CC2)C4)c1C [compound 159] | < 0.5 µM | < 0.5 µM | < 0.5 µM | 5 to 15 µM | 5 to 15 µM |  | > 15 µM |
| CN1CCC(N2Cc3cc4nc(-c5c(NC[C@@H](O)COc6cc(F)cc(F)c6Cl)cc[nH]c5=O)[nH]c4cc3C2=O)CC1 [compound 152] | < 0.5 µM | < 0.5 µM | < 0.5 µM | 5 to 15 µM | 0.5 to 5 µM |  | > 15 µM |
| CN1CCC(N2C(=O)c3cc4nc(-c5c(NC[C@@H](O)COc6ccc(F)cc6)cc[nH]c5=O)[nH]c4cc3C2=O)CC1 [compound 21] | 0.5 to 5 µM | 0.5 to 5 µM | 0.5 to 5 µM |  | 0.5 to 5 µM | 5 to 15 µM |  |
| CN1CCC(N2Cc3cc4nc(-c5c(NC[C@@H](O)COc6cc(F)ccc6Cl)cc[nH]c5=O)[nH]c4cc3C2=O)CC1 [compound 150] | < 0.5 µM | < 0.5 µM | < 0.5 µM | 5 to 15 µM | 0.5 to 5 µM |  | > 15 µM |
| CN1CCC(N2Cc3cc4nc(-c5c(NC[C@@H](O)COc6c(F)ccc(F)c6Cl)cc[nH]c5=O)[nH]c4cc3C2=O)CC1 [compound 155] | < 0.5 µM | < 0.5 µM | < 0.5 µM | 5 to 15 µM | 5 to 15 µM |  | > 15 µM |
| CN1CCC(N2C(=O)c3cc4nc(-c5c(NC[C@H](O)COc6ccc(F)cc6)cc[nH]c5=O)[nH]c4cc3C2=O)CC1 [compound 22] | 0.5 to 5 µM | 0.5 to 5 µM | 0.5 to 5 µM |  | 0.5 to 5 µM | > 15 µM |  |
| CN1CCC(N2Cc3cc4nc(-c5c(NC[C@@H](O)COc6cc7c(cc6Cl)OCO7)cc[nH]c5=O)[nH]c4cc3C2=O)CC1 [compound 157] | < 0.5 µM | < 0.5 µM | < 0.5 µM | > 15 µM | 0.5 to 5 µM |  | > 15 µM |
| CN1CCC(N2C(=O)c3cc4nc(-c5c(NCC(O)COc6ccc(C(C)(C)C)cc6)cc[nH]c5=O)[nH]c4cc3C2=O)CC1 (stereo not shown) [compound 14] | 0.5 to 5 µM | 0.5 to 5 µM | 0.5 to 5 µM |  | > 15 µM | 0.5 to 5 µM |  |
